# Tests used:
# [1] = biological target: Mu-type opioid receptor (Homo sapiens, UniProt P35372); assay: Selectivity interaction (GPCR panel (PDSP screen)) EUB0000712a OPRM1; details: at 10 µM
# [2] = biological target: T1, Serine/threonine-protein kinase Chk2 (Homo sapiens, UniProt O96017); assay: Selectivity interaction (KinomeScan (DiscoverX)) EUB0000712a CHEK2; details: at 1 µM
# [3] = biological target: T1, Serine/threonine-protein kinase Chk2; assay: Selectivity interaction (NanoBRET assay (HEK293T cells)) EUB0000712a CHEK2
# [4] = biological target: Serine/threonine-protein kinase B-raf (Homo sapiens, UniProt P15056); assay: Selectivity interaction (NanoBRET assay (HEK293T cells)) EUB0000712a BRAF
# [5] = biological target: Receptor-interacting serine/threonine-protein kinase 2 (Homo sapiens) (UniProt O43353); assay: Selectivity interaction (KinomeScan (DiscoverX)) EUB0000712a RIPK2; details: at 1 µM
# [6] = biological target: Phosphatidylinositol 4,5-bisphosphate 3-kinase catalytic subunit alpha isoform (Homo sapiens, UniProt P42336); assay: Selectivity interaction (KinomeScan (DiscoverX)) EUB0000712a PIK3CA; details: at 1 µM
# [7] = biological target: T2, Serine/threonine-protein kinase 38-like (Homo sapiens, UniProt Q9Y2H1); assay: Selectivity interaction (KinomeScan (DiscoverX)) EUB0000712a STK38L; details: at 1 µM
# Target sequence in this assay (Q9Y2H1 2-464 limits assumed): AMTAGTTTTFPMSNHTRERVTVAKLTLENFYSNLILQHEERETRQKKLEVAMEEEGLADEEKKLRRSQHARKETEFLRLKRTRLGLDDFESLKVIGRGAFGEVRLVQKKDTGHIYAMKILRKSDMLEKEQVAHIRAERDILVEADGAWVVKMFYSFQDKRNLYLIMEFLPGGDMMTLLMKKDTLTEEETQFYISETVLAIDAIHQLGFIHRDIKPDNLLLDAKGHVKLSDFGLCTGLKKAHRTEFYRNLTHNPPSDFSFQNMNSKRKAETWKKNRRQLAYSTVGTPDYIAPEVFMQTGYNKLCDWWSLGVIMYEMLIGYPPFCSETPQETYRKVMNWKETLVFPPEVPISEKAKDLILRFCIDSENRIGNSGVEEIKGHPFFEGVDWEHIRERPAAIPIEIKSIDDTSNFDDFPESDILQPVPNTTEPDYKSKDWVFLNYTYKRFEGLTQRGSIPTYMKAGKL
# [8] = biological target: T2, Serine/threonine-protein kinase 38-like; assay: Selectivity interaction (NanoBRET assay (HEK293T cells)) EUB0000712a STK38L
# Target sequence in this assay (Q9Y2H1 whole entry): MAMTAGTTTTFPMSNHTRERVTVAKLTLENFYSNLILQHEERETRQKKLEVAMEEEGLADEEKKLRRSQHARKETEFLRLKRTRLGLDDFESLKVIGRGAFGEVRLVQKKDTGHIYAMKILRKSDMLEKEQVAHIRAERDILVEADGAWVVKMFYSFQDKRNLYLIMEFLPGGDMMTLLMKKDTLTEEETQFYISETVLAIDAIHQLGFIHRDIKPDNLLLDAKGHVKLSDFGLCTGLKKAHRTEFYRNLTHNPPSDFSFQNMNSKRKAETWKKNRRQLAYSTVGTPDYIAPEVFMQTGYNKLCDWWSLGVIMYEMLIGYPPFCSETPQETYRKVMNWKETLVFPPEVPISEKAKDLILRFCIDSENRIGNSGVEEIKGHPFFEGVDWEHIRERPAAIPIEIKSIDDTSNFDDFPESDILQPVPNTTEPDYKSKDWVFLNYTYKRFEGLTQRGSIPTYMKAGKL
# [9] = biological target: T3, Homeodomain-interacting protein kinase 1 (Homo sapiens, UniProt Q86Z02); assay: Selectivity interaction (KinomeScan (DiscoverX)) EUB0000724a HIPK1; details: at 1 µM
# Target sequence in this assay (Q86Z02 whole entry, looked up): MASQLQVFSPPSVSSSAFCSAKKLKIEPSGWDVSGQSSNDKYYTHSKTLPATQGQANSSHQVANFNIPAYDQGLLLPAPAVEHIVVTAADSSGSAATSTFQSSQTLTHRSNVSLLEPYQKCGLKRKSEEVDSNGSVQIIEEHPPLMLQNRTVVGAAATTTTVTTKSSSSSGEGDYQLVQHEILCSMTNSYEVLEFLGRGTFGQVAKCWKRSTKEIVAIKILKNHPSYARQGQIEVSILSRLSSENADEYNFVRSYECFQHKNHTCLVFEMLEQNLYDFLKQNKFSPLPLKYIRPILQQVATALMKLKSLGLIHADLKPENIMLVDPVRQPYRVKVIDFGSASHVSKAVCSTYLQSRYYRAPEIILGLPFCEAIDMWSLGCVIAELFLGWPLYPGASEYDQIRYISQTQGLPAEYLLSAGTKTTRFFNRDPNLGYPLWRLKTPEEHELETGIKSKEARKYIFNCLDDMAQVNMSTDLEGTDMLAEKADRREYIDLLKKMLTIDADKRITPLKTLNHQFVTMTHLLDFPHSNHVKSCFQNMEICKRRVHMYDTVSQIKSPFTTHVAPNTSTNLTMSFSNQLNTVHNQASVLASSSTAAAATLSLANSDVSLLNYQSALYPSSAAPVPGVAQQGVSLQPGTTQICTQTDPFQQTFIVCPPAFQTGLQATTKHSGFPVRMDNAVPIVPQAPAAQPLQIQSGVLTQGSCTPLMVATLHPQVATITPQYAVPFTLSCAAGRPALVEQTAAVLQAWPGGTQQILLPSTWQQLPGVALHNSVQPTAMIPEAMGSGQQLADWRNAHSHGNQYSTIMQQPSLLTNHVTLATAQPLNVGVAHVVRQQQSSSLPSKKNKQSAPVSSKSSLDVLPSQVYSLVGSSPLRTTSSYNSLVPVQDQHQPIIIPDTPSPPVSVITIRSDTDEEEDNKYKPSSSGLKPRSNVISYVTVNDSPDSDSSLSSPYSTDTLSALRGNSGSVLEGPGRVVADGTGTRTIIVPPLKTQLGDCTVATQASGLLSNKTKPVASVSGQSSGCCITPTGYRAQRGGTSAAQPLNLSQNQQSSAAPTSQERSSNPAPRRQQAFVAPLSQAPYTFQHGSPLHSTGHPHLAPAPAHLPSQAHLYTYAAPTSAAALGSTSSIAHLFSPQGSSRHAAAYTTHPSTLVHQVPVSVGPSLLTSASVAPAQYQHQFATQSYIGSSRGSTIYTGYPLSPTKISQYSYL
# [10] = biological target: T3, Homeodomain-interacting protein kinase 1; assay: Selectivity interaction (NanoBRET assay (HEK293T cells)) EUB0000724a HIPK1
# Target sequence in this assay (Q86Z02 whole entry): as the sequence (Q86Z02 whole entry, looked up) above
# [11] = biological target: T4, Homeodomain-interacting protein kinase 2 (Homo sapiens, UniProt Q9H2X6); assay: Selectivity interaction (KinomeScan (DiscoverX)) EUB0000724a HIPK2; details: at 1 µM
# [12] = biological target: T4, Homeodomain-interacting protein kinase 2; assay: Selectivity interaction (NanoBRET assay (HEK293T cells)) EUB0000724a HIPK2
# [13] = biological target: T5, Mitogen-activated protein kinase 15 (Homo sapiens) (UniProt Q8TD08); assay: Selectivity interaction (KinomeScan (DiscoverX)) EUB0000724a MAPK15; details: at 1 µM
# T5 sequence (whole entry): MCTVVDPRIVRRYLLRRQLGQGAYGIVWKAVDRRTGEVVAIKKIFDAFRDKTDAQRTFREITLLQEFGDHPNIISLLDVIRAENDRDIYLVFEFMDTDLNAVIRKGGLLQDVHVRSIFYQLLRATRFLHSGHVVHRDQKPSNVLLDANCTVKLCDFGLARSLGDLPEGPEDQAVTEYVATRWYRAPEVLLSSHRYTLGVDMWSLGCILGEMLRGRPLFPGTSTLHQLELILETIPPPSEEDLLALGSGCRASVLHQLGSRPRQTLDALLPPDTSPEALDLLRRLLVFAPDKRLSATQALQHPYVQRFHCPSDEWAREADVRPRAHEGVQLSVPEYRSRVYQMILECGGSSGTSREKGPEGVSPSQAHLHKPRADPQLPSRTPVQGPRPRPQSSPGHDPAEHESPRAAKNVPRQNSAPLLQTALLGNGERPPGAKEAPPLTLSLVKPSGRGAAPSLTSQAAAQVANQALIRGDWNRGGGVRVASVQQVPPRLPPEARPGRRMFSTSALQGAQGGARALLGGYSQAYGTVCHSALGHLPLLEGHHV
# [14] = biological target: T6, Serine/threonine-protein kinase 16 (Homo sapiens, UniProt O75716); assay: Selectivity interaction (KinomeScan (DiscoverX)) EUB0000724a STK16; details: at 1 µM
# [15] = biological target: T6, Serine/threonine-protein kinase 16; assay: Selectivity interaction (NanoBRET assay (HEK293T cells)) EUB0000724a STK16
# [16] = biological target: Serine/threonine-protein kinase Nek7 (Homo sapiens, UniProt Q8TDX7); assay: Selectivity interaction (KinomeScan (DiscoverX)) EUB0000724a NEK7; details: at 1 µM
# [17] = biological target: T7, Phosphatidylinositol 5-phosphate 4-kinase type-2 beta (Homo sapiens) (UniProt P78356); assay: Selectivity interaction (KinomeScan (DiscoverX)) EUB0000724a PIP4K2B; details: at 1 µM
# T7 sequence (whole entry): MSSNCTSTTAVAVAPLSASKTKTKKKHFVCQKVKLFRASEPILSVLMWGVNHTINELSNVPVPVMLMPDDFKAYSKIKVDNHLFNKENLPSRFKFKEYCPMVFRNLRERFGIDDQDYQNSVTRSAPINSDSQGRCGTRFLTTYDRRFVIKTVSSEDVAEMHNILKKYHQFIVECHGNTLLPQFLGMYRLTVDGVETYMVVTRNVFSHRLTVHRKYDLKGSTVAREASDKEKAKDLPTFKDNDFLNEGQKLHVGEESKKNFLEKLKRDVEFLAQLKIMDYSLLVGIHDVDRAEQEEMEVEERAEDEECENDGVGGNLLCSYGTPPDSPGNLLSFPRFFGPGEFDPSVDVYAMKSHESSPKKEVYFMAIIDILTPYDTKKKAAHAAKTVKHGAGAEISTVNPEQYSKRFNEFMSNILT
# T1 sequence (O96017 whole entry): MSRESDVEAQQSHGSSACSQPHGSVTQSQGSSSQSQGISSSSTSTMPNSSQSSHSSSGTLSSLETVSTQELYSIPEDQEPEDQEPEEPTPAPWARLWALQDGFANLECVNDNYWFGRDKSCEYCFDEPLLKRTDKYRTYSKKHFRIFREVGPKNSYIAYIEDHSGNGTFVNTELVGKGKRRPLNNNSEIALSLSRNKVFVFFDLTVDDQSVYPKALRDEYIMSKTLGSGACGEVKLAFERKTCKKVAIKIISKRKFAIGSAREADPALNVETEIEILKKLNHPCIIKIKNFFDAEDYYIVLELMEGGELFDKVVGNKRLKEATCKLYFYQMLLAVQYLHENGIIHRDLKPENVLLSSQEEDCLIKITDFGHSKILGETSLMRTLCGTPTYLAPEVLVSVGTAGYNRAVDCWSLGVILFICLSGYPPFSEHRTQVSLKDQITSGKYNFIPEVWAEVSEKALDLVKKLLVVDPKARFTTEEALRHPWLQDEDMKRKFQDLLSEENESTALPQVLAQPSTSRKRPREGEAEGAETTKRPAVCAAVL
# T6 sequence (O75716 whole entry): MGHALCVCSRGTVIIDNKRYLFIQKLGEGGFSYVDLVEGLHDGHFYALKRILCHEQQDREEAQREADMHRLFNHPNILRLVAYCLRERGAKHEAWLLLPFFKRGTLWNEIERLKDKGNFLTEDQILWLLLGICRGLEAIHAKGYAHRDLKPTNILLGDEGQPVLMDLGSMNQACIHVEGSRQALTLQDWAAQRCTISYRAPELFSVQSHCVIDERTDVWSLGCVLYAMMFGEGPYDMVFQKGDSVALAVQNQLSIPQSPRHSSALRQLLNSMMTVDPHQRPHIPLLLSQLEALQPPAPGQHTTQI
# Sequence of Serine/threonine-protein kinase B-raf (P15056 whole entry): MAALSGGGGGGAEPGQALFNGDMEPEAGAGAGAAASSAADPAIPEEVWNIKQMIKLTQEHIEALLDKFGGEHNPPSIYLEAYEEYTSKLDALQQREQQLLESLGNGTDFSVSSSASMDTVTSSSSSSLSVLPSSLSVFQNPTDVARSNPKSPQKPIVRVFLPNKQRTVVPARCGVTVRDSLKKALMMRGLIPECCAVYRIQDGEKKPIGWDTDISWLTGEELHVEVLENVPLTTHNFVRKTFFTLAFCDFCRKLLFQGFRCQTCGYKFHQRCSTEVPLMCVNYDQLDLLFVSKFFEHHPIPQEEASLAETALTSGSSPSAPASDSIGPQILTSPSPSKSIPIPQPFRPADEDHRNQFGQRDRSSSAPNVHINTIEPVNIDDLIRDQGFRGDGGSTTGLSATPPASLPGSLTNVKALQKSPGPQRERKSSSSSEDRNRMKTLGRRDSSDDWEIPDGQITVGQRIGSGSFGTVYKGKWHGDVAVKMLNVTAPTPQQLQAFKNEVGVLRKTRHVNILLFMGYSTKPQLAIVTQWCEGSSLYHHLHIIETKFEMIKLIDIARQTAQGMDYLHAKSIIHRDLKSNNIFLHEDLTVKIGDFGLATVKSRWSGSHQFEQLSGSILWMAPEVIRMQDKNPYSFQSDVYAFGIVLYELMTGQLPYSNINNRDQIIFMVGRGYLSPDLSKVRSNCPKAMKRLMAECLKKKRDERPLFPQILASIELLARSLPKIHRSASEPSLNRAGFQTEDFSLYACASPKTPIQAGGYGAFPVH
# Sequence of Serine/threonine-protein kinase Nek7 (Q8TDX7 whole entry, looked up): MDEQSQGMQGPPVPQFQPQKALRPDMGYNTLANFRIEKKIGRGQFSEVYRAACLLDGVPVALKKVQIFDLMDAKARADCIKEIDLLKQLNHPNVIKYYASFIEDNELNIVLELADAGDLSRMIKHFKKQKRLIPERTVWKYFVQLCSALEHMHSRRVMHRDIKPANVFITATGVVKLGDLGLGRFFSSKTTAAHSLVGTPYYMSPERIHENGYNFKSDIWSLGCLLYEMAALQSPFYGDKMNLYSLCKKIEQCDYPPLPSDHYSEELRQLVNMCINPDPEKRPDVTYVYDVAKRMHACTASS
# Sequence of Receptor-interacting serine/threonine-protein kinase 2 (Homo sapiens) (O43353 whole entry, canonical isoform): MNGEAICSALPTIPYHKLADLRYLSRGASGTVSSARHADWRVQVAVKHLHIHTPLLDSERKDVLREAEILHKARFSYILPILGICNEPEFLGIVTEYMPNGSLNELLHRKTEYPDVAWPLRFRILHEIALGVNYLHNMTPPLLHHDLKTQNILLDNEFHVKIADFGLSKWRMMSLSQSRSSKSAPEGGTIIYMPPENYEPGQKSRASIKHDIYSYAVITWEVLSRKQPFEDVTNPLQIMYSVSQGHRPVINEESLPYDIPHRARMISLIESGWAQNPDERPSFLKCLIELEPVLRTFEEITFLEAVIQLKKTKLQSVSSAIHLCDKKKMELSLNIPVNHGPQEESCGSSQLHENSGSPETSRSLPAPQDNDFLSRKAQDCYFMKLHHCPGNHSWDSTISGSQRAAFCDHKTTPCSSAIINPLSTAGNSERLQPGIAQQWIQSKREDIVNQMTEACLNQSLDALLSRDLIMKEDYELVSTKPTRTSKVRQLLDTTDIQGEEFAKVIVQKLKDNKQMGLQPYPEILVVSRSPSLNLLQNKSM
SMILES,% of inhibition [1] [%],% of control [2] [%],IC50 [3] [µM],IC50 [4] [µM],% of control [5] [%],% of control [6] [%],% of control [7] [%],IC50 [8] [µM],% of control [9] [%],IC50 [10] [µM],% of control [11] [%],IC50 [12] [µM],% of control [13] [%],% of control [14] [%],IC50 [15] [µM],% of control [16] [%],% of control [17] [%]
CS(=O)(=O)N1CCCC(NC(=O)[C@H](CCC2CCCCC2)NC(=O)c2ccc(CNC(=O)c3cnc4ccccn34)cc2)C1 (some centres not stated) [SR-302],45.3,37,> 25,> 25,30,37,40,> 25,,,,,,,,,
COc1cc(Nc2nccc(-c3cnn4nc(OC)ccc34)n2)cc(C(F)(F)F)c1,,,,,,,,,31,> 10,34,> 10,21,53,0.167,40,50

# Reference: ChEMBL document CHEMBL5212743, “Selectivity Literature for EUbOPEN Chemogenomics Library wave 3” (2023)
